What was measured:
full-length human PLD1 = full-length human PLD1 (Homo sapiens (Human), UniProt Q13393); experiment: Evaluation of human PLD1 enzyme inhibitory activity (Amplex Red / choline oxidase fluorescence); format: biochemical; conditions: full-length human PLD1 enzyme; read-out: PLD1 IC50
Procedure, shortened: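 N-terminally FLAG-tagged full-length human PLD1 (1-1036), expressed in Expi293F and FLAG-purified, incubated with compound (5% DMSO final) and 1,2-diheptanoyl-sn-glycero-3-phosphocholine for 60 min at room temperature in HEPES pH 7.5 buffer. Released choline detected by Amplex Red/choline oxidase/HRP fluorescence.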

full-length human PLD2 = full-length human PLD2 (Homo sapiens (Human), UniProt O14939); experiment: Evaluation of human PLD2 enzyme inhibitory activity (Amplex Red / choline oxidase fluorescence); format: biochemical; conditions: full-length human PLD2 enzyme; read-out: PLD2 IC50
Chain of full-length human PLD2 (O14939 whole entry): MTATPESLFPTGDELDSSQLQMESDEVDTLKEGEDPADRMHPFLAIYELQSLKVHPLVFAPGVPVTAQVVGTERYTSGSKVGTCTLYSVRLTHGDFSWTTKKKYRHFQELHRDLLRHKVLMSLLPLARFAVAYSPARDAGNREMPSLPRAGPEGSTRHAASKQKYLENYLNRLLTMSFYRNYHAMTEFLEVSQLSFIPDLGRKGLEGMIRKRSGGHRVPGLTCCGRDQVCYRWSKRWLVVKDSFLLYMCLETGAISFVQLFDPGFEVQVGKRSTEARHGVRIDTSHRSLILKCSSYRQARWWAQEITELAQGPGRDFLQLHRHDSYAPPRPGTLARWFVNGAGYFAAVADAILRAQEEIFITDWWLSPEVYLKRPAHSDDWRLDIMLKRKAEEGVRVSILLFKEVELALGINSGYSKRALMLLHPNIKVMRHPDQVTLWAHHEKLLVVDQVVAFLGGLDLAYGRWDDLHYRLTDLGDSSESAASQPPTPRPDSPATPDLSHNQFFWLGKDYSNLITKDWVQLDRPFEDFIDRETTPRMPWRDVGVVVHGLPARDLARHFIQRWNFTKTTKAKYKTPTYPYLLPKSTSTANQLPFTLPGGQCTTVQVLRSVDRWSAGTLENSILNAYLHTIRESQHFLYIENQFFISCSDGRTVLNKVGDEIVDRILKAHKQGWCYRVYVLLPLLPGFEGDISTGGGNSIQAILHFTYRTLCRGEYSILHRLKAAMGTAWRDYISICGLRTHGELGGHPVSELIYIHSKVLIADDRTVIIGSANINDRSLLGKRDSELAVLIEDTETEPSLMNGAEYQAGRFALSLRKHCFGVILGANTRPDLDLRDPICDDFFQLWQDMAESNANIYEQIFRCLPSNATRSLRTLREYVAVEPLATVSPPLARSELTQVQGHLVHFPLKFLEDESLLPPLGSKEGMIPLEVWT
Procedure, shortened: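 Enzyme was N-terminal FLAG-tagged full-length human PLD2 (1-933), expressed in Expi293F cells and anti-FLAG purified. Compound (5% DMSO final) was incubated with enzyme (6 nmol/L solution) and 1,2-diheptanoyl-PC (6 mmol/L solution) in HEPES pH 7.5, KCl, EGTA, MgCl2, NP-40, BSA buffer for 60 min at room temperature. Choline was detected with Amplex Red/choline oxidase/HRP.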

Chain of full-length human PLD1 (Q13393 other isoform, or with tags, fused parts or gaps): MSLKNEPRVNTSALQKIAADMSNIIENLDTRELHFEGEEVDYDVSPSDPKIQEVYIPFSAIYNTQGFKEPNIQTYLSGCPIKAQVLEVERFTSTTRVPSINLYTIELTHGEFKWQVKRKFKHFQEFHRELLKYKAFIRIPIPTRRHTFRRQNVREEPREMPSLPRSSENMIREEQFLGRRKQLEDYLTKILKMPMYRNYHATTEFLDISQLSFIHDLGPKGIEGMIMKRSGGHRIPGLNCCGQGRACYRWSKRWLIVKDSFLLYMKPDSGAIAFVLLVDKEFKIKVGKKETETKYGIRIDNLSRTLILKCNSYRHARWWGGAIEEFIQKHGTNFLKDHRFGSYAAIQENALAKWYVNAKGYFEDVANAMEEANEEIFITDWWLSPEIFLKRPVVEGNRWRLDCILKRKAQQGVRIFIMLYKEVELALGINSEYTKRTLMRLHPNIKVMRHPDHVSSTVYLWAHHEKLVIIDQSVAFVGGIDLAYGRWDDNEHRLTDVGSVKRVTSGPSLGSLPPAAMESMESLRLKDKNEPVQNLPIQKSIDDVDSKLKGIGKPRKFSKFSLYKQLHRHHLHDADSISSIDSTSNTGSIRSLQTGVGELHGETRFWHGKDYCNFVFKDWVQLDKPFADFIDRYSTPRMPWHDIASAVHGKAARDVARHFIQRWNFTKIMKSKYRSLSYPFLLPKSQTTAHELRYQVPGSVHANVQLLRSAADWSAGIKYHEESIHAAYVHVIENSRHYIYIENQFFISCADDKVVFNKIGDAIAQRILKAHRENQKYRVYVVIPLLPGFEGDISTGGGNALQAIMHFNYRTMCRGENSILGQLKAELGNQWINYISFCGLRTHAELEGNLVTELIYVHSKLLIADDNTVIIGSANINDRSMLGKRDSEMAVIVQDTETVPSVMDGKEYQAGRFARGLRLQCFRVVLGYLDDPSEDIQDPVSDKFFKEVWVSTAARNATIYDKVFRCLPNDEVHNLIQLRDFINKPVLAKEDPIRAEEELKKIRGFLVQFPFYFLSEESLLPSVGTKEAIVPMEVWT

Compound	IC50 (full-length human PLD1) [nM]	IC50 (full-length human PLD2) [nM]
Cc1cc(C(=O)N[C@@H](C)C[C@H]2CC[C@]3(CC2)OC(=O)NN=C3c2ccc(F)cc2Cl)[nH]n1 [Example 45]	27	23
Cc1cc(C(=O)N[C@@H](C)CN2CCC3(CC2)OC(=O)NN=C3c2cc(C#N)ccc2Cl)[nH]n1 [Example 2-007]	28	< 10
CNC(=O)C(=O)N[C@@H](C)C[C@H]1CC[C@]2(CC1)OC(=O)NN=C2c1cnc(Cl)cc1C [Example 158]	27	15
CNC(=O)C(=O)N[C@@H](C)CN1CCC2(CC1)OC(=O)NN=C2c1ccc(C#N)cc1Cl [Example 168]	56	35
CC(=O)C(=O)N[C@@H](C)C[C@H]1CC[C@]2(CC1)OC(=O)NN=C2c1ccc(F)cc1Br [Example 30]	123	153
Cc1ncccc1C1=NNC(=O)O[C@]12CC[C@@H](C[C@H](C)NC(=O)c1cc(Cl)no1)CC2 [Example 103]	170	379
C[C@@H](C[C@H]1CC[C@]2(CC1)OC(=O)NN=C2c1cc(C#N)ccc1Br)NC(=O)NC1CC1 [Example 222, 1-((S)-1-(cis-5-(2-bromo-5-cyanophenyl)-2-oxo-1-oxa-3,4-diazaspiro[5.5]undec-4-en-9-yl)propan-2-yl)-3-cyclopropylurea]	59	171
C[C@@H](CN1CCC2(CC1)OC(=O)NN=C2c1cc(C#N)ccc1Br)NC(=O)C1COCCO1 (mixture of isomers) [Example 2-049]	1740	1440
CNC(=O)C(=O)N[C@@H](C)C[C@H]1CC[C@]2(CC1)OC(=O)NN=C2c1cc(OCC(C)(C)O)ccc1Br [Example 2-014]	22	< 10
CNC(=O)C(=O)N[C@@H](C)C[C@H]1CC[C@]2(CC1)OC(=O)NN=C2c1cnccc1Br [Example 151]	18	< 10
CNC(=O)C(=O)N[C@@H](C)C[C@H]1CC[C@]2(CC1)OC(=O)NN=C2c1ncccc1C [Example 147]	32	32
[2H]C([2H])([C@H](C)NC(=O)c1cnn(C)c1)N1CCC2(CC1)OC(=O)NN=C2c1ccc(F)cc1Br [Example 334]	26	< 10
CNC(=O)C(=O)N[C@@H](C)C[C@H]1CC[C@]2(CC1)OC(=O)NN=C2c1ccc(F)cc1Cl [Example 44]	18	< 10
C[C@@H](C[C@H]1CC[C@]2(CC1)OC(=O)NN=C2c1cnc(C2CC2)cc1Cl)NC(=O)N1CCn2nccc2C1 [Example 277]	17	< 10
Cc1ccc(C(=O)N[C@@H](C)C[C@H]2CC[C@]3(CC2)OC(=O)NN=C3c2ccc(F)cc2Br)nn1 [Example 252]	174	335
C[C@@H](C[C@H]1CC[C@]2(CC1)OC(=O)NN=C2c1ccc(F)cc1Br)NC(=O)c1cnn(C)c1 [Example 219]	< 10	< 10
CNC(=O)C(=O)N[C@@H](C)C[C@H]1CC[C@]2(CC1)OC(=O)NN=C2c1ccc(F)cc1C(F)(F)F [Example 56]	26	17
CNC(=O)C(=O)N[C@@H](C)C[C@H]1CC[C@]2(CC1)OC(=O)NN=C2c1cnc(N2C[C@@H]3C[C@H]2CO3)cc1C [Example 268]	30	< 10
CNC(=O)C(=O)N[C@@H](C)C[C@H]1CC[C@]2(CC1)OC(=O)NN=C2c1cccc(Br)c1 [Example 24]	41	31
Cc1ccncc1C1=NNC(=O)O[C@]12CC[C@@H](C[C@H](C)NC(=O)c1nc3ccccc3[nH]1)CC2 [Example 146]	20	< 10
C[C@@H](C[C@H]1CC[C@]2(CC1)OC(=O)NN=C2c1ccc(OC(F)F)cc1Br)NC(=O)c1cc(Cl)n[nH]1 [Example 144]	11	< 10

Compound	IC50 (full-length human PLD1) [nM]	IC50 (full-length human PLD2) [nM]
C[C@@H](CN1CCC2(CC1)OC(=O)NN=C2c1cc(C#N)ccc1Br)NC(=O)C[C@@H](O)C(F)(F)F [Example 2-002]	1250	1860
CNC(=O)C(=O)N[C@@H](C)C[C@]1(C#N)CC[C@@]2(CC1)OC(=O)NN=C2c1ccc(C#N)cc1Br [Example 2-065]	21	< 10
CNC(=O)C(=O)N[C@@H](C)C[C@H]1CC[C@]2(CC1)OC(=O)NN=C2c1cnc(N2CC(F)(F)C2)cc1C [Example 228]	28	< 10
C[C@@H](C[C@H]1CC[C@]2(CC1)OC(=O)NN=C2c1cc(Cl)ccc1Cl)NC(=O)c1cc2ccccn2c1 [Example 323]	10	< 10
C[C@@H](C[C@H]1CC[C@]2(CC1)OC(=O)NN=C2c1cnc(N2CCOCC2)cc1Cl)NC(=O)N1CCn2nccc2C1 [Example 275]	25	< 10
CC(C)=CC(=O)N[C@@H](C)CN1CCC2(CC1)OC(=O)NN=C2c1cc(C#N)ccc1Br [Example 2-022]	738	388
CNC(=O)C(=O)N[C@@H](C)C[C@H]1CC[C@]2(CC1)OC(=O)NN=C2c1cnc(C2CC2)cc1C [Example 171]	13	< 10
CNC(=O)C(=O)N[C@@H](C)C[C@H]1CC[C@]2(CC1)OC(=O)NN=C2c1cc(OC(F)F)ccc1Br [Example 184]	< 10	< 10
CNC(=O)C(=O)N[C@@H](C)CN1CCC2(CC1)OC(=O)NN=C2c1ccc(C#N)cc1Br [Example 206]	36	13
CC(C)C(=O)N[C@@H](C)C[C@H]1CC[C@]2(CC1)OC(=O)NN=C2c1ccc(F)cc1Br [Example 20]	1650	3770
C[C@@H](C[C@H]1CC[C@]2(CC1)OC(=O)NN=C2c1ccc(F)cc1I)NC(=O)C(=O)NC1CC1 [Example 177]	10	< 10
C[C@@H](C[C@H]1CC[C@]2(CC1)OC(=O)NN=C2c1cc(Cl)ccc1Cl)NC(=O)c1cc2ccccn2n1 [Example 313]	23	25
C[C@@H](C[C@H]1CC[C@]2(CC1)OC(=O)NN=C2c1ccc(F)cc1)NC(=O)c1cc2cc(F)ccc2[nH]1 [Example 4]	36	11
C[C@@H](C[C@H]1CC[C@]2(CC1)OC(=O)NN=C2c1ccc(S(C)(=O)=O)cc1Br)NC(=O)c1cc2cc(F)ccc2[nH]1 [Example 32]	32	< 10
C[C@@H](C[C@H]1CC[C@]2(CC1)OC(=O)NN=C2c1ccc(S(C)(=O)=O)cc1Br)NC(=O)c1ccccc1 [Example 49]	31	11
C[C@@H](C[C@H]1CC[C@]2(CC1)OC(=O)NN=C2c1ccc(F)cc1Br)NC(=O)[C@@H](C)O [Example 28]	341	303
CNC(=O)C(=O)N[C@@H](C)C[C@H]1CC[C@]2(CC1)OC(=O)NN=C2c1ccc(OC(F)F)cc1Br [Example 140]	< 10	< 10
COc1cc(C)c(C2=NNC(=O)O[C@]23CC[C@@H](C[C@H](C)NC(=O)N2CCc4ncccc4C2)CC3)cn1 [Example 264]	36	< 10
Cc1cc(C(=O)N[C@@H](C)CN2CCC3(CC2)OC(=O)NN=C3c2ccc(F)cc2Cl)[nH]n1 [Example 93]	32	< 10
CNC(=O)C(=O)N[C@@H](C)C[C@H]1CC[C@]2(CC1)OC(=O)NN=C2c1cnc(N2CC3(COC3)C2)cc1C [Example 191]	38	< 10

Source: patent publication US20240101572A1, “DIHYDROOXADIAZINONE COMPOUND AND PHARMACEUTICAL USE THEREOF” (Japan Tobacco Inc., priority 2022, published 2024)
